In US10927096B2, “Ester substituted ion channel blockers and methods for use” (Nocion Therapeutics, Inc., priority 2019, dated 2021):

These compounds were tested against T1, NaV1.7 (Homo sapiens, UniProt Q15858) (assay: Automated patch clamp (Qube 384), external block of NaV1.7 in HEK293 cells). Conditions: compound in external solution, read-out: NaV1.7 Extracellular Inhibition.
T1 construct: expressed in transfected cells; host or cells: HEK293, tetracycline-inducible
T1 sequence (Q15858 whole entry): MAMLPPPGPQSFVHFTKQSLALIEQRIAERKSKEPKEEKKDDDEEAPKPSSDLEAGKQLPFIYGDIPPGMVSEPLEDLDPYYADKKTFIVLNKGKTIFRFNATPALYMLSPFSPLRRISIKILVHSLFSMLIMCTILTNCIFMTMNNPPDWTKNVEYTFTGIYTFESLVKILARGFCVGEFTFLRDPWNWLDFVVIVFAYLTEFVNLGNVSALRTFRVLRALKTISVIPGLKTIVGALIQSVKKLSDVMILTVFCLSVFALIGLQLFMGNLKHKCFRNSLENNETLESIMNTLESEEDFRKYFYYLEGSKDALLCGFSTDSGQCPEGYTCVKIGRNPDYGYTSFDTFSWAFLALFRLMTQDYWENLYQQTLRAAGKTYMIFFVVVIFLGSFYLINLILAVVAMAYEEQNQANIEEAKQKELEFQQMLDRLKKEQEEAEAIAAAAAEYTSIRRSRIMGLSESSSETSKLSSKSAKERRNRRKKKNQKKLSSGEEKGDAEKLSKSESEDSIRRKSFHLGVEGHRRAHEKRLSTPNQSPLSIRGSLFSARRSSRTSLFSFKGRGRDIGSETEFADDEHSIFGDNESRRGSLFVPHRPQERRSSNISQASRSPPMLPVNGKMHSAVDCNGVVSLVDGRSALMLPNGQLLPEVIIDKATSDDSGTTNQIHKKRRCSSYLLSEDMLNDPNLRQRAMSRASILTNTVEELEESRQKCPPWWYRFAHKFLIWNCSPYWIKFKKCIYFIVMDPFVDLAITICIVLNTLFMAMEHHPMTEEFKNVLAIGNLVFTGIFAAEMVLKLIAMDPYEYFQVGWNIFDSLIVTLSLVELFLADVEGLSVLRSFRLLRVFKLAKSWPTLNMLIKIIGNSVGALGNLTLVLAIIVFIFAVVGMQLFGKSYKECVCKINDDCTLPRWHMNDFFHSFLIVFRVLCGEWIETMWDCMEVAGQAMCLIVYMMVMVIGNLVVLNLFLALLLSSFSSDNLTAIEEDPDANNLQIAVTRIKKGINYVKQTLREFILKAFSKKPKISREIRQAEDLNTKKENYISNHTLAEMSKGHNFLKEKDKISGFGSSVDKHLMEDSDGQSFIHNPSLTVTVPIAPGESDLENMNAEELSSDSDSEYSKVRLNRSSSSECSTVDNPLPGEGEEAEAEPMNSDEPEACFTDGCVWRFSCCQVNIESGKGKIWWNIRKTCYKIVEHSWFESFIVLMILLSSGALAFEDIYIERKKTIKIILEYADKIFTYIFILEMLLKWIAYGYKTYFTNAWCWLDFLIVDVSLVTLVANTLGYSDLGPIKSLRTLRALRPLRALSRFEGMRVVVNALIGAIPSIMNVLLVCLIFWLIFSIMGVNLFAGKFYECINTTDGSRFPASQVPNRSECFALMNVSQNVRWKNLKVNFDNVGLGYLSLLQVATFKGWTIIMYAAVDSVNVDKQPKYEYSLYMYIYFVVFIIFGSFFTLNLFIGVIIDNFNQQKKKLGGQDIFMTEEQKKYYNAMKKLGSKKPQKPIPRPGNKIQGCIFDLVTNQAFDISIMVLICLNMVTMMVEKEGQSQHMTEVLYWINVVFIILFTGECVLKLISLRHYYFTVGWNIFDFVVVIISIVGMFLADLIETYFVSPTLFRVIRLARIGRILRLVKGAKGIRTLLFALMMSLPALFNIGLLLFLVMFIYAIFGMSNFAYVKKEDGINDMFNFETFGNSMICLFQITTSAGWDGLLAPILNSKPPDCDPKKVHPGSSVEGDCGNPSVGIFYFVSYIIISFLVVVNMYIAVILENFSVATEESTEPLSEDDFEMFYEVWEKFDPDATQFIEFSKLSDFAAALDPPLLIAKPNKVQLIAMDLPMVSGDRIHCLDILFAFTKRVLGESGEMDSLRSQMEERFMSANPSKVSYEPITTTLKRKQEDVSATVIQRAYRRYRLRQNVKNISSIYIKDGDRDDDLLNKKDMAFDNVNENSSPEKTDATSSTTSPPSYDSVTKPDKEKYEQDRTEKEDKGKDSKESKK
Assay type: cell-based
Experimental: NaV1.7 was expressed in HEK293 cells upon induction with tetracycline. Cells were cultured in DMEM containing 10% dialyzed Fetal Bovine Serum (VWR, Radnor, Pa.), 1% Glutamax (VWR, Radnor, Pa.), 1% Penicillin-Streptomycin (VWR, Radnor, Pa.), 100 mg/L Hygromycin (Thermo Fisher Scientific, Waltham, Mass. and 5 mg/L Blasticidin (Alfa Aesar, Haverhill, Mass.). Cells were grown and maintained at 37° C. in a humidified environment containing 10% CO2 in air. Cells were detached from the culture flask for passage and harvested using 0.05% Trypsin-EDTA (Thermo Fisher Scientific, Waltham, Mass.). To induce NaV1.7, cells were induced with tetracycline (0.1-1 μg/mL, IBI Scientific, Peosta, Iowa) the day before recording.
Before experiments, cells were washed with DPBS (VWR, Radnor, Pa.), digested with Detachin (VWR Radnor, Pa.) and then triturated 10 times in CHO Serum-Free Media (VWR Radnor, Pa.) to resuspend the cells and to break apart cell aggregates. Cells were counted and the final concentration was set at 2-5 million cells per mL.
The intracellular solution contained the following: 140 mM CsF, 1 mM/5 mM EGTA/CsOH, 10 mM HEPES, 10 mM NaCl, adjusted to pH 7.3 with CsOH, and osmolality to 320 with sucrose. The external solution contained the following: 145 mM NaCl, 4 mM KCl, 1 mM MgCl2, 2 mM CaCl2, 10 mM HEPES, 10 mM Glucose, adjusted to pH 7.4 with CsOH and osmolality to 305 with sucrose. All chemicals are from Sigma-Aldrich, St. Louis, Mo. In order to test the degree of internal block by test compounds, the compounds were dissolved in internal solution at the indicated test concentration. […] In order to test the degree of external block by test compounds the compounds were dissolved in external solution at the indicated test concentration.
Automated Patch Clamps were performed on Qube 384 (Sophion Bioscience, Woburn Mass.) with multihole Qchips at a temperature setting of 22 degrees. The whole cells configuration was formed with default Qube seal and break-in parameter. The membrane potential was held at −100 mV before the voltage protocol began. Two voltage protocols were followed.
Step 1: Cells were held at −100 mV with a depolarized pulse to −20 mV for 10 ms, the interval was set at 5 s. Currents were corrected by default leak subtraction from every pulse. The duration was set at 5 mins.
Step 2: Cells were held at −100 mV with a depolarized pulse to −20 mV for 10 ms. The frequency was 5 Hz. Currents were corrected by leak subtraction calculated before step 2. The duration was set at 4 mins.
After Step 2, the external solution was changed with solutions containing test compounds. Qchips were held at −100 mV without pulsing. The total solution switching time was 8 minutes. After the external solution exchange, cells were recorded using the same procedure as step 2 for 10 minutes.
Data analysis was performed by Sophion Analyzer. Data were corrected with control cells (Non-Drug). The IC50 data were plotted with DR-plots/Hill function (a dose-response plot with a Hill fit).
Representative examples of the invention were tested for extracellular inhibition of NaV 1.7 in the automated patch clamp assay. Activity Range is reported as IC50: “++++” (<1 μM), “+++” (1-10 μM), “++” (10-30 μM) or “+” (>30 μM).
Compound `CCOC(=O)C1CCC[N+](CC(=O)Nc2c(C)cccc2C(=O)OC)(Cc2ccccc2)C1` (mixture of isomers) [Compound 16] has an IC50 of 1 to 10 µM.
With `CCCNC(=O)C1CCC[N+](CC(=O)Nc2c(C)cccc2C(=O)OC)(Cc2ccccc2)C1` (mixture of isomers) [Compound 28] the IC50 was 10 to 30 µM.
With `CNC(=O)C1CCC[N+](CC(=O)Nc2c(C)cccc2C(=O)OC)(Cc2ccccc2)C1` (mixture of isomers) [Compound 31] the IC50 was > 30 µM.
With `CC[N+]1(CC(=O)Nc2c(C)cccc2C(=O)OC)CCCC(c2ccccc2)C1` (mixture of isomers) [Compound 65] the IC50 was 10 to 30 µM.
Work on `COC(=O)c1cccc(C)c1NC(=O)C[N+]1(Cc2ccccc2)CCCCCC1` [Compound 1] yielded an IC50 of 1 to 10 µM.
Compound `CCOC(=O)c1cccc(C)c1NC(=O)C[N+]1(Cc2ccccc2)CCCCCC1` [Compound 2] has an IC50 of 1 to 10 µM.
With `COC(=O)c1cccc(C)c1NC(=O)C[N+]1(Cc2ccccc2)CCCCC1.[Br-]` [Compound 3] the IC50 was > 30 µM.
`CCOC(=O)c1cccc(C)c1NC(=O)C[N+]1(Cc2ccccc2)CCCCC1.[Br-]` [Compound 4] was tested, and the IC50 was 1 to 10 µM.
In the case of `COC(=O)c1cccc(C)c1NC(=O)C[N+]1(Cc2ccccc2)CCCC1` [Compound 5], the IC50 is reported as > 30 µM.
`Cc1cccc(C(=O)OC(C)C)c1NC(=O)C[N+]1(Cc2ccccc2)CCCCCC1.[Br-]` [Compound 7] was tested, and the IC50 was 1 to 10 µM.
Work on `CCOC(=O)c1cccc(C)c1NC(=O)C[N+]1(Cc2ccccc2)CCCC1.[Br-]` [Compound 9] yielded an IC50 of 1 to 10 µM.
With `CC[N+]1(CC(=O)Nc2c(C)cccc2C(=O)OC)CCCC(C(=O)OCC(C)C)C1.[I-]` (centres unmarked) [Compound 23] the IC50 was > 30 µM.
In the case of `COC(=O)c1cccc(C)c1NC(=O)C[N+]1(Cc2ccccc2)CCCC(C(N)=O)C1.[Br-]` (centres unmarked) [Compound 30], the IC50 is reported as > 30 µM.
`COC(=O)c1cccc(C)c1NC(=O)C[N+]1(Cc2ccccc2)CCCC(C(=O)NC(C)C)C1.[Br-]` (centres unmarked) [Compound 32] was tested, and the IC50 was > 30 µM.
`COC(=O)c1cccc(C)c1NC(=O)C[N+]1(Cc2ccccc2)CCCC(C(=O)NCC(C)C)C1.[Br-]` (centres unmarked) [Compound 36] was tested, and the IC50 was 10 to 30 µM.
`CC[N+]1(CC(=O)Nc2c(C)cccc2C(=O)OC)CCCC(C(=O)N2CCCCC2)C1.[I-]` (centres unmarked) [Compound 45] was tested, and the IC50 was > 30 µM.
`CC[N+]1(CC(=O)Nc2c(C)cccc2C(=O)OC)CCCC(C(N)=O)C1.[I-]` (centres unmarked) [Compound 55] was tested, and the IC50 was > 30 µM.
In the case of `CCC(C(=O)Nc1c(C)cccc1C(=O)OC)[N+]1(Cc2ccccc2)CCCCC1` (centres unmarked) [Compound 57], the IC50 is reported as > 30 µM.
For `CCOC(=O)C[N+]1(CC(=O)Nc2c(C)cccc2C(=O)OC)CCCC(c2ccccc2)C1.O=C([O-])C(F)(F)F` (centres unmarked) [Compound 63], the IC50 was 1 to 10 µM.
Compound `COC(=O)c1cccc(C)c1NC(=O)C[n+]1cccc(-c2ccccc2)c1.[Br-]` [Compound 66] has an IC50 of 10 to 30 µM.
`COC(=O)c1cccc(C)c1NC(=O)C[n+]1cccn1C1CCCCC1.[Br-]` [Compound 69] was tested, and the IC50 was > 30 µM.
`Cc1cccc(C(=O)OC(C)(C)C)c1NC(=O)C[n+]1cccc(-c2ccccc2)c1.[Br-]` [Compound 71] showed an IC50 of 1 to 10 µM.
`Cc1cccc(C(=O)OC(C)(C)C)c1NC(=O)C[n+]1cccn1C1CCCCC1.[Br-]` [Compound 72] was tested, and the IC50 was 1 to 10 µM.
